# pIC50: −log10 of the molar value.
# Columns and labels:
# normal pooled plasma = assay: Anticoagulation activity, Activated Partial Thromboplastin Time (APTT) test; conditions: concentration required to double clotting time
# Experimental: The following test measures anticoagulant activity of the oligomers of the present invention and utilizes the Activated Partial Thromboplastin Time (APTT) test, with the following procedures.
# To an assay cuvette is added 100 µl of normal pooled plasma (George King Biomedical Inc., Kansas) and […] of a solution containing the test compound in aqueous 50 mM Tris hydrochloride at pH 7.5 (0.2 mg of sample in one ml buffer). The sample is placed in a MLA coagulation timer which automatically maintains the sample at 37°C for 2.5 minutes, 100 µl of actin activated cephaloplastin reagent is injected, kept 5 minutes, 100 µl of 35 mM CaCI is injected, and clot formation is determined photometrically and the clotting time recorded. Each example is examined at a variety of concentrations, generally from about .025 mg/ml to about 1 mg/ml, and the clotting times are graphed as a function of concentration. From the graphic results, the concentration required to double clotting time (ICDCT) is calculated by linear interpolation.
# [1] = test system: Vascular smooth muscle cells (VSMC); assay: Smooth Muscle Cell DNA Synthesis Assay (3H-thymidine incorporation in response to PDGF); type: cell-based, swine; conditions: inhibition of incorporation of 3H-thymidine in response to PDGF (9 ng/ml)
# Experimental: Vascular smooth muscle cells (VSMC) are isolated from swine coronaries obtained from swine hearts (Hatfield Meat Packing, Hatfield, PA) by enzyme dissociation as described by Gunther, et al., in J. Cell. Biol. 92, 289 (1982). Hyaluronidase (0.5 mg/ml) is added to facilitate dispersal. Cells are maintained in Earle's modified minimal essential medium (EMEM) with D-valine substituted for L-valine, supplemented with Hepes (10 mM), fetal bovine serum (FBS) (10%), penicillin (100 U/ml) and streptomycin ( 100 µg/ml).
# The VSMC (passage 2) are plated at a density of 3 x 10^4 /cm2 (1x10^4 cells/well of 96 well tray) and after 48 hours of normal growth are arrested by replacement of above media with serum-free media for 48 hours consisting of: EMEM: Hams F12 (1:1), insulin, 5 µg/ml; transferrin, 35 µg/ml; selenite, 5 ng/ml; antibiotics and buffer (as above). The oligomer of the present invention to be tested (.01-10 µM) is added 2 hours prior to addition of porcine platelet derived growth factor (Research and Diagonostics, Minneapolis, MN), or FBS,in fresh serum-free media. Twenty-four hours later the oligomers are again added preceding addition of growth factors by 2 hours. […]
# The VSMC are pulsed (5 hours) with ^3H-thymidine (Amersham, Arlington Heights, IL) (1 µCi/well of a 96 well plate; 42 Ci/mmole) added 15-18 hours after the last dose of growth factor. DNA synthesis is determined in NaOH extraction of ethanol/ether fixed cells as reported by Nemecek, et al., PNAS 83, 674 (1986). The cells are washed with phosphate bufferred saline (200 µl/well of 96-well tray. The cells are incubated with trichloroacetic acid (TCA) (10%, 200 ul) for 5 minutes to remove cytoplasmic label. After a rapid wash with cold 10% TCA, cells are fixed with ethanol/ether (2:1, 200 µl/well 5 min) and dried. The labeled DNA is extracted with 0.5 N NaOH (200 µl/well 30 min incubation, room temperature). The extracted DNA is neutralized (0.5 N HCI) and counted by liquid scintillation.
# Statistical evaluation is as reported by Bilder, et al., Am. […] IC50 values are calculated by linear regression (RPL of RS1) from % inhibition of a minimum of 3 log fold dilutions of oligomers in the presence of PDGF (9 ng/ml) which give 70-80% of a maximal PDGF response. […] Percent inhibition is calculated by comparing the effect of PDGF alone (vehicle treated cultures + PDGF minus vehicle treated cultures without PDGF) to the effect of oligomers (oligomer + PDGF minus oligomer alone) and divided by the effect of PDGF times 100. i.e., = % inhibition = ((ΔVehicle + PDGF) - (Δoligomer + PDGF)/(Δvehicle + PDGF)) x 100.
# [2] = test system: human fixed thrombin activated platelets; assay: Platelet aggregation inhibition (fibrinogen-induced); type: cell-based; conditions: human fibrinogen added
# Experimental: The method for measuring platelet aggregation inhibition is essentially that of Ruggeri, et al., Proc. Natl. Acad. Sci. USA, 83, 5708-5712 (1986), using formalin-fixed platelets as prepared by Plow, et al., Proc. Natl. Acad. Sci. USA, 79, 3711-3715 (1982). A given amount of the compound of the present invention or other compound to be tested (10 to 100 µl of a 1 mg/ml solution) is incubated at 37°C with 400 µl of human fixed thrombin activated platelets for 2 minutes. 12.5 µl of human fibrinogen solution is added and aggregation is monitored using a platelet aggregation profiler (Model PAP-4). Controls consist of fibrinogen added to incubated platelets and the resulting aggregation is considered as 100%. Percent inhibition in the presence of a given concentration of test compound versus concentration of the compound is plotted and the concentration required to give 50% inhibition (IC50) is determined.
# [3] = target: T1, ESb mouse lymphoma heparanase (Mus musculus, UniProt Q6YGZ1); assay: Inhibition of heparanase activity (degradation of labeled ECM heparan sulfate); type: biochemical; conditions: 24 hours incubation with labeled ECM
# T1 construct: endogenous in cells; host or cells: ESb mouse lymphoma cells
# T1 sequence (Q6YGZ1 28-535): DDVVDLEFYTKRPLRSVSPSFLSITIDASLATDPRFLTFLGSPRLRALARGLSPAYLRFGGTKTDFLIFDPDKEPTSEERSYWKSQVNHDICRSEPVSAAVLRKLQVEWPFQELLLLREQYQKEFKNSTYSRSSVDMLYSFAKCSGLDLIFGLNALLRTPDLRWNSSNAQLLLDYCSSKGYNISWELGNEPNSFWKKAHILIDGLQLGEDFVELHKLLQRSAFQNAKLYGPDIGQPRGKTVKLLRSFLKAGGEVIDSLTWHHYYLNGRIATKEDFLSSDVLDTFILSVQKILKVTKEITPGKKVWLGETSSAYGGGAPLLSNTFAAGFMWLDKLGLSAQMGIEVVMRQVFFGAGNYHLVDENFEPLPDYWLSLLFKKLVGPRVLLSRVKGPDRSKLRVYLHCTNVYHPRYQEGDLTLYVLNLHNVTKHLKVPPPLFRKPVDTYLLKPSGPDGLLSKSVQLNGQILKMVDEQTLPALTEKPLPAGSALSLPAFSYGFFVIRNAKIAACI
# Experimental: Heparanase is an endoglucuronidase capable of degrading […] (HS) at specific intrachain sites.
# The ability of compounds of the present invention to inhibit lymphomacell derived heparanase is tested in the assay system described by Vlodavsky et al., Cancer Research 43, 2704-2711 (1983). […] labeled ECM is incubated for 24 hours with ESb mouse lymphoma heparanase in the presence of various concentrations of the oligomers tested. Degradation of the HS is followed by gel filtration of the supematants. Heparanase activity is expressed as the total amount of labeled low-molecular-weight fragments released from the EMC substrate.
pIC50 [1],Platelet Aggregation IC50 [2] [µg/mL],% Inhibition of Heparanase Activity (5µg/ml) [3] [%],Compound,APTT ICDCT (normal pooled plasma) [µg/mL]
7.40,250,68,"Cc1cc(O)c(Cc2cc(O)c(Cc3cc(O)c(Cc4cc(O)c(Cc5cc(O)c(Cc6cc(O)c(Cc7cc(O)c(Cc8cc(O)c(Cc9cc(O)c(Cc%10cc(O)c(Cc%11cc(O)c(Cc%12cc(O)c(Cc%13cc(O)c(Cc%14cc(O)c(Cc%15cc(O)c(Cc%16cc(O)ccc%16CCC(=O)O)cc%15CCC(=O)O)cc%14CCC(=O)O)cc%13CCC(=O)O)cc%12CCC(=O)O)cc%11CCC(=O)O)cc%10CCC(=O)O)cc9CCC(=O)O)cc8CCC(=O)O)cc7CCC(=O)O)cc6CCC(=O)O)cc5CCC(=O)O)cc4CCC(=O)O)cc3CCC(=O)O)cc2CCC(=O)O)cc1CCC(=O)O [Ex 2, Step 26]",35
6.52,,,"O=C(O)COc1cc(Cc2cc(OCc3ccccc3)c(Cc3cc(OCc4ccccc4)c(Cc4cc(OCc5ccccc5)c(Cc5cc(OCc6ccccc6)c(Cc6cc(O)ccc6OCC(=O)O)cc5OCC(=O)O)cc4OCC(=O)O)cc3OCC(=O)O)cc2OCC(=O)O)c(OCc2ccccc2)cc1CO [Ex 19, 4-benzyloxy-5-[4-[4-[4-[4-[[2-carboxymethyloxy-5-hydroxy]benzyl]-[5-benzyloxy-2-carboxymethyloxy]benzyl]-[5-benzyloxy-2-carboxymethyloxy]benzyl]-[5-benzyloxy-2-carboxymethyloxy]benzyl]-[5-benzyloxy-2-carboxymethyloxy]benzyl]-2-hydroxymethylphenoxyacetic acid]",345
6.52,,,"CCc1cc(OCC(=O)O)cc(Cc2cc(OCC(=O)O)cc(Cc3cc(OCC(=O)O)cc(Cc4cc(OCC(=O)O)cc(Cc5cc(OCC(=O)O)cc(Cc6cc(OCC(=O)O)cc(Cc7cc(OCC(=O)O)cc(Cc8cc(OCC(=O)O)ccc8OC)c7OC)c6OC)c5OC)c4OC)c3OC)c2OC)c1OC [Ex 23, 5-[3-[3-[3-[3-[3-[3-[[5-carboxymethyloxy-2-methoxy]benzyl]-[5-carboxymethyloxy-2-methoxy]benzyl]-[5-carboxymethyloxy-2-methoxy]benzyl]-[5-carboxymethyloxy-2-methoxy]benzyl]-[5-carboxymethyloxy-2-methoxy]benzyl]-[5-carboxymethyloxy-2-methoxy]benzyl]-[5-carboxymethyloxy-2-methoxy]benzyl]-3-ethyl-4-methoxyphenoxyacetic acid]",300
